Assay results published in ChEMBL document CHEMBL6177991, “Discovery of P11-2: A Potent First-in-Class MNK1-Targeting PROTAC Degrader for the Treatment of Cancer” (J Med Chem, 2025).

Assays:
MV4-11 [1] = test: Induction of apoptosis in human MV4-11 cells assessed as early apoptotic cells at 100 nM incubated for 24 hrs by Annexin V-FITC/PI dual staining based flow cytometric analysis (reference value: 3.42 %); type: functional
MV4-11 [2] = test: Induction of cell cycle arrest in human MV4-11 cells assessed as decrease in accumulation of cells at G2 phase incubated for 24 hrs by PI staining based flow cytometric analysis; type: functional; details: dose 30-300 µM

## O=C1CCC(N2Cc3c(NC(=O)CCCCCC(=O)N4CCC(C(=O)Nc5ncc(-c6ccccc6)s5)CC4)cccc3C2=O)C(=O)N1 (configuration not stated)
MV4-11 [1]
  Activity: 14.1%
MV4-11 [2]
  Activity: Dose-dependent-effect
